# Laboratory results reported in patent US20250025445A1, “METHOD OF CARDIOPROTECTION” (Race Oncology LTD., priority 2021, published 2025).
# Legend:
# [1] = tested on: Primary Human Cardiac Myocytes (HCMs); test: Primary human cardiomyocyte cell viability (CellTiter-Glo); assay type: cell-based
# Procedure: Primary Human Cardiac Myocytes (HCMs) were purchased from PromoCell® (Heidelberg, Germany) and cultured according to manufacturer's recommendations using PromoCell® Myocyte growth media (5% [v/v] foetal calf serum, 0.5 ng/ml recombinant human epidermal growth factor, 2 ng/ml recombinant human basic fibroblast growth factor, 5 μg/ml recombinant human insulin) supplemented with 1% [v/v] Penicillin-Streptomycin [Sigma-Aldrich]). Briefly, 1×10^6 HCMs were seeded and grown in Corning® T75 flasks (Sigma-Aldrich, New South Wales, Australia) in an incubator at 37° C. under 5% CO2 conditions. At 80-90% confluency, HCMs were gently detached using the DetachKit (PromoCell®), collected into Corning® 50 mL centrifuge tubes (Sigma-Aldrich), and centrifuged at 300×g for 10 mins at room temperature. The resulting supernatant were discarded and HCM pellet was resuspended with 5-10 mL of pre-warmed Myocyte Growth Medium. Total viable cells were enumerated with Invitrogen™ Countess Cell Counter (Thermo Fisher Scientific, New South Wales, Australia) and 1×10^5 live HCMs were seeded in triplicate into Corning® 96-well white polystyrene microplate (Sigma).
# Dox, Dauno and Epi, were dissolved in sterile water to make a stock concentration of 20 mM, respectively, while Tz was dissolved in sterile PBS to a stock concentration of 100 μM. […] The concentrations were as follows 0 nM, 15.62 nM, 62.5 nM, 250 nM, 500 nM, 1 μM, 5 μM, and 10 μM. […] Vehicle controls were incubated with media supplemented with either sterile water or DMSO. […] This was repeated at 48 hours and 72 hours. […] Both FB23/2 and brequinar (MedChemExpress) were dissolved in dimethyl sulfoxide (DMSO; Sigma-Aldrich) to make a stock concentration of 40 mM and 20 mM respectively.
# [2] = tested on: tumor cells from 684 patients; conditions: breast, small cell lung, large cell lung, squamous cell lung, ovarian, pancreatic, renal, adrenal, head and neck, sarcoma, gastric, lymphoma and melanoma tumor cells; cited from earlier work
structure (smiles),measurement,setting,value
"C(=NNC1=NCCN1)c1c2ccccc2c(C=NNC2=NCCN2)c2ccccc12 [bisantrene, 9,10-anthracenedicarboxaldehyde bis [(4,5-dihydro-1H-imidazol-2-yl)hydrazone]]",protection of cardiomyocytes against toxicity of CFZ,"[1]; 0-5 μM bisantrene with 1 μM carfilzomib, 24, 48, 72 hrs, FIG. 1",concentration-dependent protection
same,protection of cardiomyocytes against toxicity of Dox,"[1]; 0-5 μM bisantrene with 1 μM doxorubicin, 24, 48, 72 hrs, FIG. 1",concentration-dependent protection
same,rescue of bortezomib cardiomyocyte toxicity,"[1]; 1 μM bisantrene coadministered with bortezomib, 72 hours, FIG. 7",significant rescue of cardiomyocyte toxicity
same,rescue of carfilzomib cardiomyocyte toxicity,"[1]; 1 μM bisantrene coadministered with carfilzomib, 72 hours, FIG. 7",significant rescue of cardiomyocyte toxicity
same,rescue of daunorubicin cardiotoxicity on cardiomyocytes,"[1]; 1 μM bisantrene with 1 μM daunorubicin, 72 hours, FIG. 5",cardiotoxicity rescue effects
same,rescue of epirubicin cardiotoxicity on cardiomyocytes,"[1]; 1 μM bisantrene with 1 μM epirubicin, 72 hours, FIG. 6",a trend toward statistical significance
same,effect on combined toxicity of doxorubicin and trastuzumab to cardiomyocytes,"[1]; 1 or 5 μM bisantrene with 1 μM doxorubicin and 500 nM trastuzumab, FIG. 2",reduced the combined toxicity
same,effect of increasing bisantrene on loss of cardiomyocyte viability with doxorubicin alone,"[1]; 1 or 5 μM bisantrene with 1 μM doxorubicin, FIG. 2",reduced loss of viability
same,toxicity (loss in cell viability) to cardiomyocytes,"[1]; agent alone (1 μM doxorubicin, 1 μM carfilzomib, 0-5 μM bisantrene), 24 hrs, 48 hrs and 72 hrs, FIG. 1",mild progressive toxicity
same,activity in clonogenic assays,[2],Activity in clonogenic assays from 684 patients was seen
